# Data reported in PMC10046369, “Low-Affinity/High-Selectivity Dopamine Transport Inhibition Sufficient to Rescue Cognitive Functions in the Aging Rat” (Biomolecules, 2023).
# Legend:
# Test in all cases: biochemical
# Parameters in all cases: KINOMEscan competition binding panel, per cent of control
# Details in all cases: read-out: %Ctrl @ 2800nM
# LIMK1 = LIMK1 (Homo sapiens, UniProt P53667)
# Summary of the method: (§1)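 Values are expressed as percent of control, calculated as ((test − positive control)/(negative control − positive control)) × 100, so lower numbers mean stronger hits. Binding was measured by KINOMEscan competition assay in a 450-kinase human panel including disease mutants, using the contractor's validated protocol.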
# DAPK2 = DAPK2 (Homo sapiens, UniProt Q9UIK4)
# Summary of the method: as §1
# CDK11 = target: T1, CDK11 (Homo sapiens, UniProt Q9BWU1)
# T1 construct: gene CDK19
# Summary of the method: as §1
# EPHA3 = EPHA3 (Homo sapiens, UniProt P29320)
# Summary of the method: as §1
# SRMS = SRMS (Homo sapiens, UniProt Q9H3Y6)
# Summary of the method: as §1
# CLK2 = CLK2 (Homo sapiens, UniProt P49760)
# Summary of the method: as §1
# EPHB4 = EPHB4 (Homo sapiens, UniProt P54760)
# Summary of the method: as §1
# [1] = target: T2, RSK2(Kin.Dom.2-C-terminal) (Homo sapiens, UniProt P51812)
# T2 construct: gene RPS6KA3; Kin.Dom.2-C-terminal
# Summary of the method: as §1
# CSNK2A1 = CSNK2A1 (Homo sapiens, UniProt P68400)
# Summary of the method: as §1
# AXL = AXL (Homo sapiens, UniProt P30530)
# Summary of the method: as §1
# EGFR(L858R,T790M) = EGFR(L858R,T790M) (Homo sapiens, UniProt P00533, L858R/T790M)
# Summary of the method: as §1
# PIP5K1A = PIP5K1A (Homo sapiens, UniProt Q99755)
# Summary of the method: as §1
# TIE1 = TIE1 (Homo sapiens, UniProt P35590)
# Summary of the method: as §1
# TIE2 = target: T3, TIE2 (Homo sapiens, UniProt Q02763)
# T3 construct: gene TEK
# Summary of the method: as §1
# DAPK3 = DAPK3 (Homo sapiens, UniProt O43293)
# Summary of the method: as §1
# ERK5 = target: T4, ERK5 (Homo sapiens, UniProt Q13164)
# T4 construct: gene MAPK7
# Summary of the method: as §1
# CAMK1 = CAMK1 (Homo sapiens, UniProt Q14012)
# Summary of the method: as §1
# TGFBR2 = TGFBR2 (Homo sapiens, UniProt P37173)
# Summary of the method: as §1
# CAMK2G = CAMK2G (Homo sapiens, UniProt Q13555)
# Summary of the method: as §1
# [2] = target: T5, RPS6KA5(Kin.Dom.2-C-terminal) (Homo sapiens, UniProt O75582)
# T5 construct: Kin.Dom.2-C-terminal
# Summary of the method: as §1
# TLK1 = TLK1 (Homo sapiens, UniProt Q9UKI8)
# Summary of the method: as §1
# [3] = target: T6, ABL1(M351T)-phosphorylated (Homo sapiens, UniProt P00519, M351T)
# T6 construct: phosphorylated
# Summary of the method: as §1
# PRKG1 = PRKG1 (Homo sapiens, UniProt Q13976)
# Summary of the method: as §1
# MKNK2 = MKNK2 (Homo sapiens, UniProt Q9HBH9)
# Summary of the method: as §1
# NDR1 = target: T7, NDR1 (Homo sapiens, UniProt Q15208)
# T7 construct: gene STK38
# Summary of the method: as §1
# PCTK1 = target: T8, PCTK1 (Homo sapiens, UniProt Q00536)
# T8 construct: gene CDK16
# Summary of the method: as §1
# Sequence of TIE1 (P35590 whole entry): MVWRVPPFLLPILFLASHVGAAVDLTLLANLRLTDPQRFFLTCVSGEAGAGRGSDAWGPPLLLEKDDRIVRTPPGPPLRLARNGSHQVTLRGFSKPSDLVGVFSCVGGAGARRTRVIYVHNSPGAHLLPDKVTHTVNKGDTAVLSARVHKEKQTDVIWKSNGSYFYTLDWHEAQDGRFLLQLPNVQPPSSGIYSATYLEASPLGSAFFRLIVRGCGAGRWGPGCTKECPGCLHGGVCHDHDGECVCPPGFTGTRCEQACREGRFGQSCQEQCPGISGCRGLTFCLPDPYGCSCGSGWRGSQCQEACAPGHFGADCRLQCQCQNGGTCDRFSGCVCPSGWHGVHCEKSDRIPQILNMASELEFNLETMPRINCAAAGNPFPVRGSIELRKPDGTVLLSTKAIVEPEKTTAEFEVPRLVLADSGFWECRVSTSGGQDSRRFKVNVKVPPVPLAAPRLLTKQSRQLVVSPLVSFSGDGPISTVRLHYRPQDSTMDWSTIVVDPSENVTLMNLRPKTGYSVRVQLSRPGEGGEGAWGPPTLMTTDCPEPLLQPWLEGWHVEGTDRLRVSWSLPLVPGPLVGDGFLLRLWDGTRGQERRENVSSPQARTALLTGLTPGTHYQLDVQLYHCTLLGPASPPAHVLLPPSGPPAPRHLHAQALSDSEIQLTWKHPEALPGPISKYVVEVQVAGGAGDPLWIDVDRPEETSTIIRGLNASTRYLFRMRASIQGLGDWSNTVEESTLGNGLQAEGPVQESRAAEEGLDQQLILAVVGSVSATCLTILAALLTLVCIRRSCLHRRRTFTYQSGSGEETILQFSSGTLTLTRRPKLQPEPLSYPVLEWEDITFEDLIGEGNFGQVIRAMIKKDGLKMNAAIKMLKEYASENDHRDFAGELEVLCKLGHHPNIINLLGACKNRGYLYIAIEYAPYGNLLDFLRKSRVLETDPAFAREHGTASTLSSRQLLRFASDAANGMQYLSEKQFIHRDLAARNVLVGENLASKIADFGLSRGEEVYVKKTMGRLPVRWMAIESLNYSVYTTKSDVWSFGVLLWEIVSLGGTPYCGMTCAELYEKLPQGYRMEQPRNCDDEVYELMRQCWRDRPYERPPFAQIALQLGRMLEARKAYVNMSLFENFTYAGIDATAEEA
# Sequence of EPHA3 (P29320 whole entry): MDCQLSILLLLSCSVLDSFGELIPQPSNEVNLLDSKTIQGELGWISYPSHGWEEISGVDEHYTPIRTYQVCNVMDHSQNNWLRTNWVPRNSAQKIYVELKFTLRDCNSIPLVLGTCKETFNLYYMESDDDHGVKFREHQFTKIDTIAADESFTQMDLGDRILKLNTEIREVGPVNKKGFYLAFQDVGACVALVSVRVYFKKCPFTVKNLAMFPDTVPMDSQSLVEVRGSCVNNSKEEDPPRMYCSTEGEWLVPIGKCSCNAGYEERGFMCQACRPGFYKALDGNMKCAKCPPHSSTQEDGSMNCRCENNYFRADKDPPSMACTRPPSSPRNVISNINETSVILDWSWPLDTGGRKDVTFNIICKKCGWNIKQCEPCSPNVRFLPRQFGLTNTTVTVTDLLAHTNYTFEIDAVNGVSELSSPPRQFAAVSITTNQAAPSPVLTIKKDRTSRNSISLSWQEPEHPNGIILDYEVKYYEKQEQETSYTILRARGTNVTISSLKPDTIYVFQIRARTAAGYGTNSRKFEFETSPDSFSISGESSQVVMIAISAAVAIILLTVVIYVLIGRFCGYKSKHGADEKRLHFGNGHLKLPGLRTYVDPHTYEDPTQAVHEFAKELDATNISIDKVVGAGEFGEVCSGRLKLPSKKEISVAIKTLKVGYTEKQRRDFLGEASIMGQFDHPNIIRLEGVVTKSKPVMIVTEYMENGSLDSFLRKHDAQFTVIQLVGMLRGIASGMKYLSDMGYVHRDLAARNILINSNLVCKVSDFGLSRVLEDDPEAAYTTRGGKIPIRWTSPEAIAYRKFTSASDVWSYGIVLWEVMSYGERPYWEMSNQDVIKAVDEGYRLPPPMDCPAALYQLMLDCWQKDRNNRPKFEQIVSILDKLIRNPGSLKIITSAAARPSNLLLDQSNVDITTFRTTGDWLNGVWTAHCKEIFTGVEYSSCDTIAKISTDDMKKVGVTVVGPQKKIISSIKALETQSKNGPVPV
# T8 sequence (Q00536 whole entry): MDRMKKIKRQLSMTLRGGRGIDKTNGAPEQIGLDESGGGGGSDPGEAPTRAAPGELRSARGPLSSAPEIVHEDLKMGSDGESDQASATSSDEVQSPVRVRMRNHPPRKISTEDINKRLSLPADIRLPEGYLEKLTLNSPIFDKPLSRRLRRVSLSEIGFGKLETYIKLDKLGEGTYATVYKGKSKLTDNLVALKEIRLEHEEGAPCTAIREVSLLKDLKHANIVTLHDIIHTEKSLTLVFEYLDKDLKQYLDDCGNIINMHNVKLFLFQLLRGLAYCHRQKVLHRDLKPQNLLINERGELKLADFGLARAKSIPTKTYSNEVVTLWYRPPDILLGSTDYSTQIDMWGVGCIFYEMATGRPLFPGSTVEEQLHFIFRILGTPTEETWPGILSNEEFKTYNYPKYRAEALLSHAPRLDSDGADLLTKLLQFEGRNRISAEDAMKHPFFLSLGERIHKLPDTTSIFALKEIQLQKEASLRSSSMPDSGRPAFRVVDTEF
# Sequence of AXL (P30530 whole entry): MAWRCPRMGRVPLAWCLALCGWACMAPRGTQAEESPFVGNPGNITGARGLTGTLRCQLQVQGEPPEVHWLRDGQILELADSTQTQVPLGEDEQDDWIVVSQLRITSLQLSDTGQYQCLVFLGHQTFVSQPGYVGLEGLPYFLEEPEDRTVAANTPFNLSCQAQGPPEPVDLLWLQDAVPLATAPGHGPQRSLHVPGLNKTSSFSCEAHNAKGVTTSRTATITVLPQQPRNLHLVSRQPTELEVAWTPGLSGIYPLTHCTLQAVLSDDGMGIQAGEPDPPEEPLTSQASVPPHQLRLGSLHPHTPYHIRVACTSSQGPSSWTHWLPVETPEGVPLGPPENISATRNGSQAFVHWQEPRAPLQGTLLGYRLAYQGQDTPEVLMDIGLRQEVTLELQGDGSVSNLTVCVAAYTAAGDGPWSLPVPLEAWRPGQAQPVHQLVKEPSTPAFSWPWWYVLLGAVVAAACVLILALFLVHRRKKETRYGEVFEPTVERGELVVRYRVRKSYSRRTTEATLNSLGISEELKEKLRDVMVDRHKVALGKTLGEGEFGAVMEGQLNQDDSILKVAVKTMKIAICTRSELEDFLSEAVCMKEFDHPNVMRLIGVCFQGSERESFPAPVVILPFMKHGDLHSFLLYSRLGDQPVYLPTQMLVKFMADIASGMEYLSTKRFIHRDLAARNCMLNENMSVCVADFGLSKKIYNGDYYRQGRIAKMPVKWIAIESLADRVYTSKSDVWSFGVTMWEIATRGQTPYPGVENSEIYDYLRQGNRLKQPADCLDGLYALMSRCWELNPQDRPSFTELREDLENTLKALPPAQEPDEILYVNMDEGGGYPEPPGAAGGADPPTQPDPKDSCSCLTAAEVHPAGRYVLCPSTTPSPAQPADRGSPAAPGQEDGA
# Sequence of PIP5K1A (Q99755 whole entry): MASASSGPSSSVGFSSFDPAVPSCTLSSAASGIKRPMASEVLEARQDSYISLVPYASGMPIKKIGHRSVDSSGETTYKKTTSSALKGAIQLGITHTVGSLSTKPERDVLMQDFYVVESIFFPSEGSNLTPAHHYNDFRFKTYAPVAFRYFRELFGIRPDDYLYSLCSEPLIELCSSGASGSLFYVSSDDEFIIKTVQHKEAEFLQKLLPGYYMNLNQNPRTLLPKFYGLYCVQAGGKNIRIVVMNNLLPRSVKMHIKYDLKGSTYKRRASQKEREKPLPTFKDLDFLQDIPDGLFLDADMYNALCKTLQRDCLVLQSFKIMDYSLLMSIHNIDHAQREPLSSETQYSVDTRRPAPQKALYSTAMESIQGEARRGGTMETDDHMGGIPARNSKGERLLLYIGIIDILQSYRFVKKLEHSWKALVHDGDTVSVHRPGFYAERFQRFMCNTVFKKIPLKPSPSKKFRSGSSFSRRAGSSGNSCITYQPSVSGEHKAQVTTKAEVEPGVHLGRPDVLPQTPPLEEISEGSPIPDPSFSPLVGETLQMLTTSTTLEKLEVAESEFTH
# T5 sequence (O75582 whole entry): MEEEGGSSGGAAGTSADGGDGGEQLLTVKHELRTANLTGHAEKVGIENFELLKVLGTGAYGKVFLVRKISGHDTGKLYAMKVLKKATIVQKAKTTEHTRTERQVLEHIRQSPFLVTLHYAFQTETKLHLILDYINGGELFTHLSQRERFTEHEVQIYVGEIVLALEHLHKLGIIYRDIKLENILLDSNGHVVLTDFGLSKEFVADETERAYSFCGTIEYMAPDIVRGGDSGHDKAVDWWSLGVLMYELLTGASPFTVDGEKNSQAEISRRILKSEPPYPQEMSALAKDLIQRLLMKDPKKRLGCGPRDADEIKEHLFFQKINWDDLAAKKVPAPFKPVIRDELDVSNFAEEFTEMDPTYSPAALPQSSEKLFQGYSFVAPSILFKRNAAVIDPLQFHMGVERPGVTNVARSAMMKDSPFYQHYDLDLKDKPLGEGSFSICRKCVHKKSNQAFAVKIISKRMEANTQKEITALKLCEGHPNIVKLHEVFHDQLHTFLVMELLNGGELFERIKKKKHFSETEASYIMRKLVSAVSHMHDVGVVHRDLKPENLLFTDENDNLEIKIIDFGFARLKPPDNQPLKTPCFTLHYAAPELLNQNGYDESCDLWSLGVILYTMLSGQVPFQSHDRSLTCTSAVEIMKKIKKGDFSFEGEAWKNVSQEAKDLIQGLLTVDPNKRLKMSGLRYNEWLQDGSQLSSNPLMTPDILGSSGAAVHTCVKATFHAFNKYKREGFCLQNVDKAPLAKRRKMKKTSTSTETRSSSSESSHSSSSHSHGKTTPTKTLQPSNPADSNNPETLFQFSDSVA
smiles,measurement,setting,value
"[O-][S@@+](Cc1cncs1)C(c1ccccc1)c1ccccc1 [S-CE-123, (S)-5-((Benzhydrylsulfinyl)Methyl)Thiazole]",remaining binding at 2.8 µM,LIMK1,98%
same,remaining binding at 2.8 µM,DAPK2,96%
same,remaining binding at 2.8 µM,CDK11,71%
same,remaining binding at 2.8 µM,EPHA3,97%
same,remaining binding at 2.8 µM,SRMS,99%
same,remaining binding at 2.8 µM,CLK2,93%
same,remaining binding at 2.8 µM,EPHB4,95%
same,remaining binding at 2.8 µM,[1],96%
same,remaining binding at 2.8 µM,CSNK2A1,88%
same,remaining binding at 2.8 µM,AXL,96%
same,remaining binding at 2.8 µM,"EGFR(L858R,T790M)",99%
same,remaining binding at 2.8 µM,PIP5K1A,95%
same,remaining binding at 2.8 µM,TIE1,100%
same,remaining binding at 2.8 µM,TIE2,100%
same,remaining binding at 2.8 µM,DAPK3,96%
same,remaining binding at 2.8 µM,ERK5,91%
same,remaining binding at 2.8 µM,CAMK1,97%
same,remaining binding at 2.8 µM,TGFBR2,88%
same,remaining binding at 2.8 µM,CAMK2G,95%
same,remaining binding at 2.8 µM,[2],85%
same,remaining binding at 2.8 µM,TLK1,91%
same,remaining binding at 2.8 µM,[3],100%
same,remaining binding at 2.8 µM,PRKG1,100%
same,remaining binding at 2.8 µM,MKNK2,69%
same,remaining binding at 2.8 µM,NDR1,83%
same,remaining binding at 2.8 µM,PCTK1,97%
